Data from patent publication US7897765B2, “Therapeutic compounds and uses thereof” (Elixir Pharmaceuticals, Inc., priority 2003, dated 2011).

System: male C57BL/6J mice
Assay: fast-refeed (refeeding) assay, food intake
Type: in vivo
Conditions: not given
Method: Food is removed at 6 pm for an overnight (˜16 hour) fast. Beginning at 10 am on the next morning, mice are administered with either vehicle (e.g., saline+acetic acid, pH=5) or the compound of interest. Mice are then returned to their home cages and pre-weighed food (approximately 90 grams) is immediately returned to the food hoppers in each cage. The weight of the food remaining in the food hoppers is measured at 30 minutes, 1 hour, 2 hours, and 4 hours post compound/vehicle administration. Final body weights are then recorded for the mice.
Animals: For this particular experiment, male C57BL/6J mice (Vendor: Taconic; Age: 7 weeks; Weight Range: 19-25 g) were used. The animals were housed individually during acclimation to facility (3-5 days) and throughout the study. […]
• Mice were weighed and sorted into groups based on Body Weight. • Food was removed at 6 pm for an overnight (˜16 hour) fast. […] After injections mice were returned to their home cages. • Following each injection, pre-weighed food was immediately returned to the food hoppers. • Note: food was weighed the morning injections were administered. • Mouse weighed • Food weighed (approx. 90 g) • Mouse injected • Pre-weighed food returned to hopper • Food Weights were measured at 30 min, 1 hr, 2 hr, and 4 hrs post injection. • Final body weights were recorded and mice were euthanized via CO2 asphyxiation.

Compound	feeding activity of mice in the fast refeed assay
substance P	alters feeding activity

Biological target: GHS-R (Homo sapiens, UniProt Q92847)
Assay: cell based assay of GHS-R antagonist/agonist activity
Set-up: key: A refers to a compound having antagonist activity with Ki<100 nM in a cell based assay; B refers to a compound having agonist activity with EC50<100 nM in a cell based assay; C refers to a compound having antagonist activity of Ki>100 nM and <1500 nM in a cell based assay; D refers to a compound having antagonist activity with Ki, <100 nM and agonist activity with EC50<100 nM in a cell-based assay; E refers to other exemplary compounds
Conditions: GHS-R antagonist Ki and/or agonist EC50 class
In short: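 COS-7 cells transfected with GHS-R, labelled with [3H]-myo-inositol, preincubated in 10 mM LiCl buffer pH 7.4, then given compound 45 min at 37 °C; [3H]-IP isolated by anion exchange. Alternatively, CREB-luciferase reporter in transfected HEK293 with 5 h compound exposure. IC50/EC50 by nonlinear regression.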

GHS-R, sequence (Q92847 whole entry, species assumed): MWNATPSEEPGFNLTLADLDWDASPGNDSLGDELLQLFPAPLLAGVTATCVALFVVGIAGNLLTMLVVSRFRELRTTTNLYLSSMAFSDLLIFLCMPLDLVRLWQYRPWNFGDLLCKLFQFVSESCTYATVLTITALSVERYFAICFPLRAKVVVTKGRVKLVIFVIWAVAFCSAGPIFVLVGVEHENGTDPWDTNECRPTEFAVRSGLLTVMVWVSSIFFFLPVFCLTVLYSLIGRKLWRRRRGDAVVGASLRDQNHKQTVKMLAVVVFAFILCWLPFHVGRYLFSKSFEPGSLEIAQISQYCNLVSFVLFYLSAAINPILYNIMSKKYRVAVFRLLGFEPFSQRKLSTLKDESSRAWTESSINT

Compound	Activity
CN1CC=C(C(=O)N[C@H](COCc2ccccc2)C(=O)N2CCC3(CC2)CN(S(C)(=O)=O)c2ccccc23)CC1 [Compound 99]	E
CN(C)CC(=O)N[C@H](COCc1ccccc1)C(=O)N1CCC2(C=Cc3ccccc32)CC1 [Compound 29]	C (C refers to a compound having antagonist activity of Ki>100 nM and <1500 nM in a cell based assay)
CN1CCCC[C@@H]1C(=O)N[C@H](COCc1ccccc1)C(=O)N1CCC2(CC1)CN(S(C)(=O)=O)c1ccccc12.Cl [Compound 133]	B (B refers to a compound having agonist activity with EC50<100 nM in a cell based assay)
CCN(CC)CCCS(=O)(=O)N[C@H](COCc1ccccc1)C(=O)N1CCC2(CC1)CN(S(C)(=O)=O)c1ccccc12 [Compound 155]	A (A refers to a compound having antagonist activity with Ki<100 nM in a cell based assay)
CCN(CC)CCCS(=O)(=O)N(C)[C@H](COCc1ccccc1)C(=O)N1CCC2(CC1)CN(S(C)(=O)=O)c1ccccc12 [Compound 162]	A (A refers to a compound having antagonist activity with Ki<100 nM in a cell based assay)
